Laboratory results taken from ChEMBL document CHEMBL1148698, “Chemotherapy of leishmaniasis. Part VII: synthesis and bioevaluation of substituted terpenyl pyrimidines” (2007).
Active and inactive are the calls of the source. No cut-off for these calls is given here.

System: Leishmania donovani
Assay: Antileishmanial activity against Leishmania donovani HOM/IN/80DD8 in hamster at 50 mg/kg, ip after 7 days
Details: for inhibition in vivo at 50 mg/kg: HOM/IN/80DD8, ip, 168 h

Row | Compound | Activity | inhibition in vivo at 50 mg/kg
1 | CC1=C(/C=C/c2cc(NN)nc(N)n2)C(C)(C)CCC1 | inactive | –
2 | CC1=C(/C=C/c2cc(Nc3ccc(F)cc3)nc(N)n2)C(C)(C)CCC1 | inactive | –
3 | CC1=C(/C=C/c2cc(Nc3ccccc3)nc(N)n2)C(C)(C)CCC1 | – | 31%
4 | CSc1cc(/C=C/C2=C(C)CCCC2(C)C)nc(N)n1 | – | 66%
5 | CC1=C(/C=C/c2cc(NCc3ccccc3)nc(N)n2)C(C)(C)CCC1 | inactive | –
6 | CC1=C(/C=C/c2cc(Nc3ccc(Cl)cc3)nc(N)n2)C(C)(C)CCC1 | inactive | –
7 | CC1=C(/C=C/c2cc(NC3CCCCC3)nc(N)n2)C(C)(C)CCC1 | inactive | –
8 | CC1=C(/C=C/c2cc(N3CCNCC3)nc(N)n2)C(C)(C)CCC1 | inactive | –
9 | CCN(c1ccccc1)c1cc(/C=C/C2=C(C)CCCC2(C)C)nc(N)n1 | – | 40%
10 | CC1=C(/C=C/c2cc(N3CCN(c4ccccc4)CC3)nc(N)n2)C(C)(C)CCC1 | inactive | –
11 | CC1=C(/C=C/c2cc(N3CCOCC3)nc(N)n2)C(C)(C)CCC1 | inactive | –
12 | CC1=C(/C=C/c2cc(Nc3cccc(F)c3)nc(N)n2)C(C)(C)CCC1 | inactive | –
13 | CC1=C(/C=C/c2cc(N3CCCCC3)nc(N)n2)C(C)(C)CCC1 | inactive | –
14 | COc1ccc(Nc2cc(/C=C/C3=C(C)CCCC3(C)C)nc(N)n2)cc1 | inactive | –
